Experimental data taken from ChEMBL document CHEMBL1146994, “Advances toward new antidepressants beyond SSRIs: 1-aryloxy-3-piperidinylpropan-2-ols with dual 5-HT1A receptor antagonism/SSRI activities. Part 5” (Bioorg Med Chem Lett, 2006).
The source made the active and inactive calls. No cut-off for these calls is given here.

Legend:
Rattus norvegicus [1] = experiment: Ability to block 8-OH-DPAT-induced increase of corticosterone in po dosed rat serum after 1 hr; type: functional
Rattus norvegicus [2] = experiment: Increase in 5HT level in Sprague-Dawley rat hypothalamus by microdialysis at 20 mg/kg, po (basal value set at 100%); type: functional
[3] = biological target: T1, 5-hydroxytryptamine receptor 1A (Rattus norvegicus) (UniProt P19327); experiment: Receptor occupancy ex vivo by inhibition of [3H]8-OH-DPAT binding to 5HT1A receptor in Sprague-Dawley rat frontal cortex tissue at 30 mg/kg, po relative to control; type: functional, organism-based; design: dose 30 mg/kg
T1 sequence (whole entry): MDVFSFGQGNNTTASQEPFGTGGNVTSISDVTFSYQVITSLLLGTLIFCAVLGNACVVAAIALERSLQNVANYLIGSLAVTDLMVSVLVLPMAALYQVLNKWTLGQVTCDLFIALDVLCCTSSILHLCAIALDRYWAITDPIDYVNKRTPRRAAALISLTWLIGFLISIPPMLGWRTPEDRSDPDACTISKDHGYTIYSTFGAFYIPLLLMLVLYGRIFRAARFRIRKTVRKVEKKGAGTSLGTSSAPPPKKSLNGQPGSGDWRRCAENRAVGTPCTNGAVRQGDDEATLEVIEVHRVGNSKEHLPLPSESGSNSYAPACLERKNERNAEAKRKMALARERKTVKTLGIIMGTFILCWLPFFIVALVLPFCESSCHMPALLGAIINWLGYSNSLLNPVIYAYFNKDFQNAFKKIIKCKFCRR

Rattus norvegicus [4] = experiment: Ability to block PCA-induced depletion of 5HT concentration in po dosed rat brain after 2 hrs; type: functional
[5] = biological target: Sodium-dependent serotonin transporter (Rattus norvegicus) (UniProt P31652); experiment: Receptor occupancy ex vivo by inhibition of [3H]paroxetine binding to 5HT reuptake site in Sprague-Dawley rat frontal cortex tissue at 30 mg/kg, po relative to control; type: functional, organism-based; design: dose 30 mg/kg
Sequence of Sodium-dependent serotonin transporter (Rattus norvegicus) (P31652 whole entry): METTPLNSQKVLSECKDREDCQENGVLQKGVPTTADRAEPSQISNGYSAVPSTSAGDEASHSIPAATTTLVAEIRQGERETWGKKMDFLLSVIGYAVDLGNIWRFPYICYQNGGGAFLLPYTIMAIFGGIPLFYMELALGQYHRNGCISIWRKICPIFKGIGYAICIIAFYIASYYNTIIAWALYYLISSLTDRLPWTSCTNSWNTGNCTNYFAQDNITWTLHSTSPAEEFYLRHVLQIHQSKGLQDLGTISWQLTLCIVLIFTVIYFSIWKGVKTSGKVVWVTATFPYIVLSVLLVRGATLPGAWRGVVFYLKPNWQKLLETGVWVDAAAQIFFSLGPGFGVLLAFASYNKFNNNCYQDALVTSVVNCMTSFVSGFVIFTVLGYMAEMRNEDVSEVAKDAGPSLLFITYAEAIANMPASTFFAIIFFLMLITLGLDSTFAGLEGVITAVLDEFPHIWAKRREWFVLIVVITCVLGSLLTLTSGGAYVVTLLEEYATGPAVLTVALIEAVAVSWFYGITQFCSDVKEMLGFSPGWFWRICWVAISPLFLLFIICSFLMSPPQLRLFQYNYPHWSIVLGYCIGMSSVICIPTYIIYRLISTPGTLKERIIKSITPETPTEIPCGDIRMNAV

[6] = biological target: Sodium-dependent serotonin transporter (Homo sapiens, UniProt P31645); experiment: Displacement of [3H]paroxetine from 5HT reuptake site
Sequence of Sodium-dependent serotonin transporter (P31645 whole entry): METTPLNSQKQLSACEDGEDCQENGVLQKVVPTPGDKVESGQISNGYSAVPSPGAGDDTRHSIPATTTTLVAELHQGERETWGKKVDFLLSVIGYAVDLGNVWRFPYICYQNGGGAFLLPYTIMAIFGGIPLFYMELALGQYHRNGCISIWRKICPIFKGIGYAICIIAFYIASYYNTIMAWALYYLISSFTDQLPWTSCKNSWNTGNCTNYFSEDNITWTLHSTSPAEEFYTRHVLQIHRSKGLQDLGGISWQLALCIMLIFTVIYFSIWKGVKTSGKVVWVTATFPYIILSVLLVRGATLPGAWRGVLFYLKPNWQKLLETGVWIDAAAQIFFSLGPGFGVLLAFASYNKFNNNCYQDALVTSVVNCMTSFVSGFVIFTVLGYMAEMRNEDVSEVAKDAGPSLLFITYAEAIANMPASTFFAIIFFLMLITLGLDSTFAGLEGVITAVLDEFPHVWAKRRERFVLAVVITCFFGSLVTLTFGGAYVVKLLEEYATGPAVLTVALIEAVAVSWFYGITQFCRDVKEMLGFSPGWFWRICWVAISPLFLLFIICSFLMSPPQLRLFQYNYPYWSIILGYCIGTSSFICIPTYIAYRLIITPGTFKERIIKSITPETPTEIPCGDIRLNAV

Rattus norvegicus [7] = experiment: Reduction of serotonergic neuron level in dorsal raphe nucleus of anesthetized rat after 3 days of sub-chronic administration at 10 mg/kg/day; type: functional, organism-based
Rattus norvegicus [8] = experiment: Increase in 5HT level in Sprague-Dawley rat hypothalamus by microdialysis at 10 mg/kg, po (basal value set at 100%); type: functional
Rattus norvegicus [9] = experiment: Increase in 5HT level in Sprague-Dawley rat hypothalamus by microdialysis at 30 mg/kg, po (basal value set at 100%); type: functional
Rattus norvegicus [10] = experiment: Ability to block 8-OH-DPAT-induced increase of corticosterone in sc dosed rat serum after 1 hr; type: functional
Rattus norvegicus [11] = experiment: Ability to block PCA-induced depletion of 5HT concentration in sc dosed rat brain after 2 hrs; type: functional
Rattus norvegicus [12] = experiment: Increase in 5HT level in Sprague-Dawley rat hypothalamus by microdialysis at 20 mg/kg, sc (basal value set at 100%); type: functional; settings: route subcutaneous
Rattus norvegicus [13] = experiment: Increase in 5HT level in Sprague-Dawley rat hypothalamus by microdialysis at 10 mg/kg, ip (basal value set at 100%); type: functional; settings: route intraperitoneal

Compound `COc1cccc2sc([C@H]3CCN(C[C@H](O)COc4cccc5[nH]ccc45)[C@H](C)C3)cc12` has an ED50 (Rattus norvegicus [1]) of over 30 mg/kg, an Activity (Rattus norvegicus [2]) of 330% and an inhibition [3] of 33%. The ED50 (Rattus norvegicus [4]) was over 10 mg/kg, the inhibition [5] was 8% and the Ki [6] was 1.15 nM.
For `COc1cccc2sc([C@@H]3CCN(C[C@H](O)COc4cccc5[nH]c(C)cc45)[C@@H](C)C3)cc12`, the ED50 (Rattus norvegicus [1]) was 3.2 mg/kg, the inhibition [3] was -3% and the Activity (Rattus norvegicus [7]) was “inactive”. For the same compound, the ED50 (Rattus norvegicus [4]) was 3.79 mg/kg, the inhibition [5] was 26% and the Activity (Rattus norvegicus [8]) was 713%.
Compound `COc1cccc2sc([C@H]3CCN(C[C@H](O)COc4cccc5[nH]ccc45)[C@@H](C)C3)cc12` has an inhibition [3] of 40%, an inhibition [5] of 88% and a Ki [6] of 13.6 nM.
For `C[C@H]1C[C@H](c2cc3ccc(F)cc3s2)CCN1C[C@H](O)COc1cccc2[nH]ccc12`, the ED50 (Rattus norvegicus [1]) was over 30 mg/kg, the inhibition [3] was 23% and the Activity (Rattus norvegicus [9]) was 479%. It also gave an ED50 (Rattus norvegicus [4]) of 0.69 mg/kg, an inhibition [5] of 8% and an ED50 (Rattus norvegicus [10]) of 5.08 mg/kg. It also gave a Ki [6] of 0.31 nM.
Work on `C[C@H]1C[C@H](c2cc3cc(Cl)ccc3s2)CCN1C[C@H](O)COc1cccc2[nH]ccc12` yielded an ED50 (Rattus norvegicus [1]) of 26 mg/kg, an Activity (Rattus norvegicus [2]) of 287% and an inhibition [3] of 47%. It also gave an ED50 (Rattus norvegicus [4]) of 3.65 mg/kg, an inhibition [5] of 39% and a Ki [6] of 0.58 nM.
With `COc1cccc2sc(C3CCN(C[C@H](O)COc4cccc5[nH]c(C)cc45)CC3)cc12` the Ki [6] was 51.2 nM.
In the case of `COc1cccc2sc([C@@H]3CCN(C[C@H](O)COc4cccc5[nH]ccc45)[C@@H](C)C3)cc12`, the ED50 (Rattus norvegicus [1]) is reported as 21.1 mg/kg, the inhibition [3] is reported as 13% and the Activity (Rattus norvegicus [9]) is reported as 368%. For the same compound, the ED50 (Rattus norvegicus [4]) was 3.71 mg/kg, the inhibition [5] was 11% and the Ki [6] was 0.27 nM.
In the case of `COc1ccc2cc([C@@H]3CCN(C[C@H](O)COc4cccc5[nH]ccc45)[C@@H](C)C3)sc2c1`, the inhibition [3] is reported as 14%, the ED50 (Rattus norvegicus [11]) is reported as 1.07 mg/kg and the Activity (Rattus norvegicus [9]) is reported as 140%. For the same compound, the inhibition [5] was 29% and the Ki [6] was 1.1 nM.
Compound `O[C@H](COc1cccc2[nH]ccc12)CN1CCC(c2cc3ccccc3s2)CC1` has an inhibition [3] of 6%, an inhibition [5] of 80% and a Ki [6] of 16.7 nM.
For `C[C@H]1C[C@H](c2cc3ccccc3s2)CCN1C[C@H](O)COc1cccc2[nH]ccc12`, the inhibition [3] was 1%, the Activity (Rattus norvegicus [12]) was 264% and the ED50 (Rattus norvegicus [11]) was 0.28 mg/kg. For the same compound, the inhibition [5] was -2%, the ED50 (Rattus norvegicus [10]) was 2.83 mg/kg and the Ki [6] was 0.51 nM.
Work on `Cc1cccc2sc([C@@H]3CCN(C[C@H](O)COc4cccc5[nH]ccc45)[C@@H](C)C3)cc12` yielded an ED50 (Rattus norvegicus [1]) of over 30 mg/kg, an inhibition [3] of 20% and an Activity (Rattus norvegicus [9]) of 210%. It also gave an ED50 (Rattus norvegicus [4]) of 1.65 mg/kg, an inhibition [5] of 9% and a Ki [6] of 0.44 nM.
`Cc1cc2c(OC[C@@H](O)CN3CC[C@@H](c4cc5ccccc5s4)C[C@@H]3C)cccc2[nH]1` showed an inhibition [3] of 5%, an inhibition [5] of 17% and an Activity (Rattus norvegicus [8]) of 119%.
In the case of `O[C@H](COc1cccc2[nH]ccc12)CN1CCC(c2cc3ccc(F)cc3s2)CC1`, the inhibition [3] is reported as 9%, the Activity (Rattus norvegicus [9]) is reported as 130% and the inhibition [5] is reported as 13%. It also gave a Ki [6] of 1.99 nM.
`COc1cccc2sc(C3CCN(C[C@H](O)COc4cccc5[nH]ccc45)CC3)cc12` was tested, and the inhibition [3] was 4%, the inhibition [5] was 100% and the Ki [6] was 12.6 nM.
`Cc1cc2c(OC[C@@H](O)CN3CC[C@@H](c4cc5cc(F)ccc5s4)C[C@@H]3C)cccc2[nH]1` gave an inhibition [3] of 6%, an Activity (Rattus norvegicus [9]) of 315% and an inhibition [5] of 30%. For the same compound, the Ki [6] was 0.24 nM.
Compound `COc1cccc2sc([C@@H]3CCN(C[C@H](O)COc4cccc5[nH]ccc45)[C@H](C)C3)cc12` has an inhibition [3] of 28% and an inhibition [5] of 70%.
In the case of `CNCCC(Oc1ccc(C(F)(F)F)cc1)c1ccccc1` (stereo not drawn) [FLUOXETINE], the Activity (Rattus norvegicus [7]) is reported as “Active” and the Activity (Rattus norvegicus [13]) is reported as 160%.
